# Like-named read-outs stand apart in the source and are kept apart here.
# Legend:
# S. parasitica CBS 540.67 [1] = assay: Broth macrodilution susceptibility testing (zoospores and cysts); format: cell-based, Saprolegnia parasitica; details: S. parasitica CBS 540.67, 24 h, 15-20° C., geometric mean of three tests; for MIC: Saprolegnia parasitica, CBS540, read-out: MIC, Macrodilution
# Protocol: (§1) Two methods were used, each suitable for a different phase of the asexual life cycle of Saprolegnia spp.: i) the broth macrodilution method, for determination of susceptibility of zoospores and cysts; and ii) the agar-dilution method for determination of susceptibility of filamentous hyphae. Each compound was tested three times in each method. Malachite Green was used as positive control.
# (§2) This method is a modification of the method used for molds according to EUCAST 7.1 (European Committee on Antibiotic Susceptibility Testing) and CLSI/NCCLS M27-A2 (Clinical Laboratory Standards Institute/National Committee for Clinical Laboratory Standards). For inoculum preparation, S. parasitica isolates were cultured on GP-PS for 7 days with sterile clover seeds at 18° C. […] Cysts and zoospores free from hyphae were collected, and an inoculum of ˜10^3 CFU/ml as measured by hemacytometer counting, was prepared in RPMI. Fluorescent Brightener 28 stock solution was prepared by adding 40% KOH gradually to a 10 mg/ml solution in water, until it was clear, then it was filtered twice through a 0.2 μm cellulose acetate nonpyrogenic sterile filter (Schleicher & Schuell, Dassel, Germany).
# (§3) Final drug concentrations in the test tubes ranged from 1×10^4 to 0.01 mg/L. Inoculum of 0.9 ml was added to each of a sterile tube containing 0.1 ml of the serially diluted drug. Two tubes containing drug-free medium and two tubes containing drug-free inoculum were used as controls. The inoculated tubes were incubated at room temperature (15-20° C.) for 24 h. The growth in each tube was then evaluated visually.
# S. parasitica T-1 [2] = assay: as above; format: cell-based, Saprolegnia parasitica; details: S. parasitica T-1, 24 h, 15-20° C., geometric mean of three tests; for MIC: Saprolegnia parasitica, read-out: MIC, Macrodilution
# Protocol: as §1, §2, §3
# S. parasitica T-1 [3] = assay: Agar-dilution susceptibility testing (filamentous hyphae); format: cell-based, Saprolegnia parasitica; details: S. parasitica T-1, 24 h, 15-20° C., geometric mean of three tests; for MIC: Saprolegnia parasitica, read-out: MIC, Agar-dilution
# Protocol: as §1
# Twofold serial dilutions were prepared in double distillated sterile water with final drug concentrations ranging from 10,000 to 0.01 mg/L in a final volume of 1.0 ml. […] The mixture was vortexed, and poured into small plates. After agar solidification a small measured piece, taken from a 7-10 day old culture of S. parasitica T-1 on GP-PS medium was placed upside down on each plate. The plates were incubated at room temperature (15-20° C.) for 24 h.
# S. parasitica CBS 540.67 [4] = assay: as above; format: cell-based, Saprolegnia parasitica; details: S. parasitica CBS 540.67, 24 h, 15-20° C., geometric mean of three tests; for MIC: Saprolegnia parasitica, CBS540, read-out: MIC, Agar-dilution
# S. parasitica = assay: In vitro susceptibility of S. parasitica in Table 4; format: cell-based, Saprolegnia parasitica; details: for MIC: Saprolegnia parasitica
# Protocol: The in vitro susceptibility of Saprolegnia parasitica T-1 and S. parasitica CBS 540.67 to various compounds was determined by the agar-dilution and broth macrodilution methods.
# as §1
# This method is a modification of the method used for molds according to EUCAST 7.1 (European Committee on Antibiotic Susceptibility Testing) and CLSI/NCCLS M27-A2 (Clinical Laboratory Standards Institute/National Committee for Clinical Laboratory Standards). For inoculum preparation, S. parasitica isolates were cultured on GP-PS for 7 days with sterile clover seeds at 18° C. Clover seeds (˜20) covered with mycelium were removed and added to 40 ml of RPMI-1640 broth medium (Sigma; prepared according to NCCLS instructions) and incubated at 18° C. for 4-7 days. Cysts and zoospores free from hyphae were collected, and an inoculum of ˜10^3 CFU/ml as measured by hemacytometer counting, was prepared in RPMI. Fluorescent Brightener 28 stock solution was prepared by adding 40% KOH gradually to a 10 mg/ml solution in water, until it was clear, then it was filtered twice through a 0.2 μm cellulose acetate nonpyrogenic sterile filter (Schleicher & Schuell, Dassel, Germany).
# as §3, with “Twofold serial dilutions of the resulting stock solutions were set in RPMI-1640 medium in a volume of 0.1 ml. Final” for “Final”
# This method is a modification of the method presented by Bailey (Bailey, T. A. (1983) Prog. Fish Cult. 45:24-27), and was used for the susceptibility testing of Saprolegnia hyphae. Twofold serial dilutions were prepared in double distillated sterile water with final drug concentrations ranging from 10,000 to 0.01 mg/L in a final volume of 1.0 ml. Melted (56° C.) RPMI-1640 agar medium (Sigma) was prepared according to NCCLS instructions, and then added to each tube containing drug or water control. The mixture was vortexed, and poured into small plates. After agar solidification a small measured piece, taken from a 7-10 day old culture of S. parasitica T-1 on GP-PS medium was placed upside down on each plate. The plates were incubated at room temperature (15-20° C.) for 24 h.
# tilapia = assay: in vivo
# Protocol: (§4) LC50 values were determined by static short-term tests as a measure of the relative acute lethal toxicity for tilapia (Standard methods for the evaluation of water and wastewater (1985) 16th ed. American Public Health Association, Washington, D.C. p. 689-819).
# (§5) Hybrid tilapia (Oreochromis niloticus X Oreochromis aureus) having an average weight of 20 g, were kept in 100 liter polyethylene tanks at a density of 1 fish per 10 liters, at a constant temperature of 21° C. for three weeks before the initiation of the experiment by addition of a test compound to each tank. […] For the latter experiments, fish were acclimated to the required temperature for three weeks prior to addition of the test compound to the tank. Fish were treated with 5 different concentrations of each test compound, determined according to the MIC values of each compound.
# (§6) Mortality of fish was recorded up to 96 h. Water parameters (O2, NH4^+, NO2^−, pH and Cl^−) were monitored throughout the experiment and were maintained within acceptable limits. The presented results are the mean of two separate experiments.
# in vivo = details: hybrid tilapia (Oreochromis niloticus X Oreochromis aureus), in vivo, LC50
# Protocol: as §4, §5, §6
# [5] = method and isolate not separated, read-out: MIC
# [6] = Table 4 summary, read-out: Activity in vitro (MIC), value
Molecule,"MIC, Macrodilution (S. parasitica CBS 540.67 [1])","MIC, Macrodilution (S. parasitica T-1 [2])","MIC, Agar-dilution (S. parasitica T-1 [3]) [mg/L]","MIC, Agar-dilution (S. parasitica CBS 540.67 [4]) [mg/L]",MIC (S. parasitica CBS 540.67 [1]) [mg/L],MIC (S. parasitica T-1 [2]) [mg/L],MIC (S. parasitica T-1 [3]) [mg/L],MIC (S. parasitica CBS 540.67 [4]) [mg/L],also measured
Triton X-100,100 mg/L,50 mg/L,200,200,,,,,
"CCCCCCCCCCCCOS(=O)(=O)[O-].[Na+] [SDS, Sodium dodecylsulfate]",,,,,250,100,500,500,
O=S(=O)([O-])c1cc(Nc2nc(Nc3ccccc3)nc(N(CCO)CCO)n2)ccc1C=Cc1ccc(Nc2nc(Nc3ccccc3)nc(N(CCO)CCO)n2)cc1S(=O)(=O)[O-].[Na+].[Na+] [Fluorescent Brightener 28],2 mg/L,1 mg/L,5,5,,,,,
C[C@@H]1[C@H](O)[C@@H](C)/C=C/C=C/C=C/C=C/C=C/C=C/C=C/[C@H](O[C@@H]2O[C@H](C)[C@@H](O)[C@H](N)[C@@H]2O)C[C@@H]2O[C@](O)(C[C@@H](O)C[C@@H](O)[C@H](O)CC[C@@H](O)C[C@@H](O)CC(=O)O[C@H]1C)C[C@H](O)[C@H]2C(=O)O [Amphotericin B],0.25 mg/L,0.5 mg/L,5,2.5,,,,,"Activity in vitro (MIC), grade (S. parasitica; Table 4 summary): High; Activity in vitro (MIC), value (S. parasitica; Table 4 summary): (0.1-0.5 mg/L); Toxicity (tilapia; Table 4 summary): Moderate (moderate = 50-200 ppm)"
C=CCOC(Cn1ccnc1)c1ccc(Cl)cc1Cl (stereo not shown) [Enilconazole],,,,,1,1,5,5,
CCCCCCCCCCCCCCCC[N+](C)(C)C.[Br-] [CTAB],5 mg/L,5 mg/L,10,50,,,,,
Tween ® 80,100 mg/L,100 mg/L,200,200,,,,,
[Cl-].[Na+] [Sodium chloride],"30,000 mg/L","30,000 mg/L",,,,,,,"Activity in vitro (MIC), value (S. parasitica; Table 4 summary): Low (30,000 mg/L"
O=C([O-])[O-].O=C([O-])[O-].OO.OO.OO.[Na+].[Na+].[Na+].[Na+] [Sodium percarbonate],2.5 mg/L,5 mg/L,,,,,,,"Activity in vitro (MIC), grade (S. parasitica; Table 4 summary): High; Activity in vitro (MIC), value (S. parasitica; Table 4 summary): (10 mg/L); Toxicity (tilapia; Table 4 summary): High (in (high = 50 ppm)"
OO [Hydrogen peroxide],,,,,8,10,,,"MIC (S. parasitica; [5]): ≤ 10 mg/L; MIC (S. parasitica; [6]): 10 mg/L; Activity in vitro (MIC), grade (S. parasitica; Table 4 summary): High; LC50 (in vivo): 75 mg/L; Toxicity (tilapia; in vivo): Moderate (key: High: high = 50 ppm; Moderate: moderate = 50-200 ppm; Low: low = >1000 ppm)"
C[C@@H]1CC[C@@]2(OC1)O[C@H]1[C@@H](O)[C@H]3[C@@H]4CC[C@H]5C[C@@H](O[C@@H]6O[C@H](CO)[C@H](O[C@@H]7O[C@H](CO)[C@@H](O)[C@H](O[C@@H]8OC[C@@H](O)[C@H](O)[C@H]8O)[C@H]7O[C@@H]7O[C@H](CO)[C@H](O)[C@H](O[C@@H]8O[C@H](CO)[C@@H](O)[C@H](O)[C@H]8O)[C@H]7O)[C@H](O)[C@H]6O)[C@H](O)C[C@]5(C)[C@H]4CC[C@]3(C)[C@H]1[C@@H]2C [Digitonin],,,,,2.5,2.5,10,20,MIC (S. parasitica; [5]): ≤ 10 mg/L
O=[N+]([O-])C(Br)(CO)CO [Pyceze ®],,,,,100,100,100,200,"MIC (S. parasitica; [6]): 100 mg/L; Toxicity (tilapia; Table 4 summary): Moderate (moderate = 50-200 ppm); LC50 values compared with respective MIC values (tilapia; tilapia LC50 versus S. parasitica MIC): lower, similar or insignificantly different"

# From patent US8377934B2, “Use of stilbene derivatives for treatment and prevention of aquatic mold infections” (State of Israel, Ministry of Agriculture & Rural …, priority 2006, dated 2013)
